Data as given in PubChem BioAssay (NCI).
“And” between values parts separate entries of the source, which are not always exact repeats. Equal entries are not always repeated.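 Growth conditions: 96-well plates. Treatment: test compound, 48 hours, 5 concentrations. Analysis: linear interpolation between bracketing concentrations; unreached endpoints set to highest concentration. Here, GI50 denotes the concentration required for 50% inhibition of growth. TGI denotes the concentration required for complete inhibition of growth.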

Assays:
Test in all cases: NCI-60 cell line screen, 48 h
[1] = system: MDA-MB-468 breast
[2] = system: SW-620 colon
[3] = system: HS 578T breast
[4] = system: PC-3 prostate
[5] = system: A498 renal
[6] = system: HOP-62 NSCLC
[7] = system: CAKI-1 renal
[8] = system: SNB-75 CNS
[9] = system: NCI-H23 lung
[10] = system: MDA-MB-231 breast
[11] = system: MDA-MB-435
[12] = system: U251 CNS
[13] = system: UO-31 renal
[14] = system: DU-145 prostate
[15] = system: HCT-116 colon
[16] = system: MALME-3M melanoma
[17] = system: A549 NSCLC
[18] = system: UACC-257 melanoma
[19] = system: SK-OV-3 ovarian
[20] = system: SF-295 CNS
[21] = system: HCT-15 colon
[22] = system: 786-0 renal
[23] = system: SNB-19 CNS
[24] = system: BT-549 breast
[25] = system: OVCAR-3 ovarian
[26] = system: LOX IMVI melanoma
[27] = system: SF-539 CNS
[28] = system: HCC-2998 colon
[29] = system: IGROV1 ovarian
[30] = system: SF-268 CNS
[31] = system: TK-10 renal
[32] = system: SK-MEL-2 melanoma
[33] = system: T-47D breast
[34] = system: OVCAR-5 ovarian
[35] = system: NCI-H226 lung
[36] = system: EKVX NSCLC
[37] = system: NCI/ADR-RES ovarian
[38] = system: NCI-H522 lung
[39] = system: MCF7 breast
[40] = system: SK-MEL-5 melanoma
[41] = system: KM12 colon
[42] = system: K-562 leukemia

`Cc1cc(C)c([O-])c(CN(C)CCN(C)Cc2cc(C)cc(C)c2[O-])c1.O=C([O-])c1cccc(C(=O)[O-])n1.[Ti+4]` gave a GI50 [1] of 1.33 µM and a TGI [1] of 3.65 µM.

Compound `CC(=O)c1c(C)[nH]c(-c2nc3ccc(N4CCN(C)CC4)cc3[nH]2)c1-c1ccc(OCC2CCOCC2)cc1` has a GI50 [1] of 0.302 µM and a TGI [1] of 7.88 µM.

In the case of `C=C1C(=O)O[C@H]2[C@H]1CC/C(CNC(=O)c1cc3cc(OC)ccc3[nH]1)=C\CC[C@@]1(C)O[C@@H]21`, the GI50 [1] is reported as 0.714 µM and the TGI [1] is reported as 2.61 µM.

`NOCC(=O)O` gave a GI50 [1] of over 100 µM and a TGI [1] of over 100 µM.

Work on `CN[C@@H](C)C(=O)N[C@H](C(=O)N1CCC[C@H]1C(=O)N[C@H]1c2ccccc2C[C@H]1OCC#CC#CCO[C@@H]1Cc2ccccc2[C@@H]1NC(=O)[C@@H]1CCCN1C(=O)[C@@H](NC(=O)[C@H](C)NC)C1CCCCC1)C1CCCCC1` yielded a GI50 [1] of under 0.01 µM and a TGI [1] of 2.18 µM.

Work on `COc1cc(C(=O)/C(C)=C/c2c[nH]c3ccccc23)cc(OC)c1OC` yielded a GI50 [1] of 0.00334 µM.

For `O=[N+]([O-])c1cc(Cl)c(Cl)c([N+](=O)[O-])c1Cl`, the GI50 [1] was 1.05 µM and the TGI [1] was 2.64 µM.

`COc1cc(Nc2nccc(Nc3ccc4c(C)[nH]nc4c3)n2)cc(OC)c1OC` was tested, and the GI50 [1] was 2.12 µM and the TGI [1] was 7.86 µM.

`CO[C@@H]1/C=C\C=C(/C)C(=O)NC2=CC(=O)C(NCCN(C)C)=C(C[C@@H](C)C[C@@H](OC)[C@@H](O)[C@H](C)/C=C(\C)[C@H]1OC(N)=O)C2=O` was tested, and the GI50 [1] was 0.0187 µM and the TGI [1] was 0.0656 µM.

`O=c1c2cc(Cl)ccc2oc2ccc(OCCCCCN3CCCCC3)cc12` was tested, and the GI50 [1] was 5.19 µM and the TGI [1] was 12.7 µM.

With `CC[C@H](NC(=O)[C@H](C)NC)C(=O)N1C[C@@H](O)C[C@H]1Cc1c(-c2[nH]c3cc(F)ccc3c2C[C@@H]2C[C@H](O)CN2C(=O)[C@H](CC)NC(=O)[C@H](C)NC)[nH]c2cc(F)ccc12` the GI50 [1] was 0.2 µM and the TGI [1] was 28 µM.

In the case of `COc1cc(OC)c(/C=C/S(=O)(=O)Cc2cnc(OC)c(N)c2)c(OC)c1`, the GI50 [1] is reported as under 0.0212 µM and the TGI [1] is reported as over 100 µM.

`O=C(O)CCN1C(=O)/C(=C/C=C/c2ccc([N+](=O)[O-])o2)SC1=S` gave a GI50 [2] of 1.26 µM, a TGI [2] of 2.81 µM and a GI50 [3] of 1.65 µM. It also gave a TGI [3] of 6.71 µM, a GI50 [4] of 1.93 µM and a TGI [4] of 6.09 µM. It also gave a GI50 [5] of 20 µM, a TGI [5] of 34.3 µM and a GI50 [6] of 1.86 µM. It also gave a TGI [6] of 3.92 µM, a GI50 [7] of 1.77 µM and a TGI [7] of 3.17 µM. It also gave a GI50 [8] of 1.57 µM, a TGI [8] of 10.7 µM and a TGI [9] of 3.08 µM. For the same compound, the GI50 [10] was 1.27 µM, the TGI [10] was 2.58 µM and the GI50 [11] was 1.53 µM. For the same compound, the TGI [11] was 3.17 µM, the GI50 [12] was 0.849 µM and the GI50 [13] was 1.26 µM. The TGI [13] was 2.53 µM, the GI50 [14] was 3.33 µM and the TGI [14] was 12.2 µM. For the same compound, the GI50 [15] was 0.386 µM, the TGI [15] was 1.66 µM and the GI50 [16] was 0.748 µM. It also gave a TGI [16] of 2.12 µM, a TGI [17] of 13.5 µM and a TGI [18] of 3.55 µM. It also gave a GI50 [19] of 3.98 µM, a GI50 [20] of 1.68 µM and a TGI [20] of 3.24 µM. For the same compound, the GI50 [21] was 0.43 µM, the GI50 [1] was 1.13 µM and the TGI [1] was 2.49 µM. For the same compound, the GI50 [22] was 1.63 µM, the GI50 [23] was 2.09 µM and the GI50 [24] was 1.13 µM. For the same compound, the TGI [24] was 2.38 µM, the GI50 [25] was 1.17 µM and the TGI [25] was 2.57 µM. For the same compound, the GI50 [26] was 0.508 µM, the GI50 [27] was 1.09 µM and the TGI [27] was 2.3 µM. The GI50 [28] was 1.65 µM, the TGI [28] was 3.06 µM and the GI50 [29] was 1.58 µM. For the same compound, the GI50 [30] was 1.68 µM, the TGI [30] was 3.95 µM and the GI50 [31] was 1.81 µM. It also gave a TGI [31] of 3.35 µM, a GI50 [32] of 1.16 µM and a GI50 [33] of 1.41 µM. It also gave a TGI [33] of 4.17 µM, a GI50 [34] of 1.8 µM and a TGI [34] of 3.34 µM. For the same compound, the GI50 [35] was 1.4 µM, the GI50 [36] was 1.41 µM and the GI50 [37] was 2.01 µM. It also gave a TGI [37] of 10.1 µM, a GI50 [38] of 0.379 µM and a TGI [38] of 1.46 µM. The GI50 [39] was 0.401 µM, the GI50 [40] was 1.38 µM and the TGI [40] was 2.68 µM. For the same compound, the TGI [41] was 2.71 µM, the GI50 [42] was 0.378 µM and the TGI [42] was 6.07 µM.

In the case of `CCN1CCN(C(=O)[C@]23CC[C@@H](C)[C@H](C)[C@@H]2C2=CC[C@@H]4[C@@]5(C)C/C(=C/c6ccncc6)C(=O)C(C)(C)[C@@H]5CC[C@@]4(C)[C@]2(C)CC3)CC1`, the GI50 [1] is reported as 1.63 µM and the TGI [1] is reported as 3.38 µM.

With `CC(=O)N[C@H]1C=C[C@@H]2/C=C(C)/C=C/[C@@H](C)[C@H]([C@H](C)[C@H](O)[C@@H](C)NC(C)=O)OC(=O)/C=C/C=C(C)\C=C\[C@]2(C)C1` the GI50 [1] was 0.00184 µM and 0.0045 µM.

`Cc1nc2sc(C(=O)Nc3cccc(Cl)c3C)c(N)c2cc1C(=O)/C=C/c1ccccc1` was tested, and the GI50 [1] was 0.212 µM and the TGI [1] was 0.811 µM.

Compound `COc1ccc(CN(C)c2ccc(CO)c(Cl)c2)cc1` has a GI50 [1] of 0.0551 µM and a TGI [1] of 0.197 µM.

For `COc1cc(OC)cc(C2CC(=O)Nc3c2c(C)nn3-c2nc3ccccc3[nH]2)c1` (stereo not drawn), the GI50 [1] was 3.93 µM and the TGI [1] was over 100 µM.

Compound `O=C(O[C@H]1CN[C@H](C#Cc2cc3ncnc(Nc4ccc5c(ccn5Cc5cc(F)ccc5F)c4)c3s2)C1)N1CCOCC1` has a GI50 [1] of 0.141 µM and a TGI [1] of 1.59 µM.

Work on `O=c1ccn(C2OC(CO)C(O)C2F)c(=O)[nH]1` (stereo not drawn) yielded a GI50 [1] of over 1000 µM and a TGI [1] of over 1000 µM.

`C#C[C@]1(O)CC[C@H]2[C@@H]3CC=C4c5sc(Nc6cccc(Cl)n6)nc5CC[C@]4(C)[C@H]3CC[C@@]21C` was tested, and the GI50 [1] was 1.49 µM and the TGI [1] was 4.05 µM.

For `Cc1ccccc1NC(=O)N/C(N)=N/c1nc(-c2cccc([N+](=O)[O-])c2)cs1`, the GI50 [1] was 1.64 µM and the TGI [1] was 7.24 µM.

`CC(C)=CCCC(C)c1ccc(C)c2c1OCN(CC1CCNCC1)C2` (stereo not drawn) was tested, and the GI50 [1] was 5.01 µM and the TGI [1] was 18.5 µM.

Work on `O=C1Nc2ccc(C(=O)c3ccco3)cc2/C1=C/c1cc(Cl)c(O)c(Cl)c1` yielded a GI50 [1] of 1.86 µM and a TGI [1] of 16 µM.

For `CCOC(=O)Nc1nc2ccc(Cn3cccc3)cc2[nH]1`, the GI50 [1] was 2.44 µM and the TGI [1] was over 100 µM.

In the case of `O=c1c(Oc2ccc(F)cc2F)cc2cnc(NC3CCOCC3)nc2n1C1CCS(=O)(=O)CC1`, the GI50 [1] is reported as over 25 µM and the TGI [1] is reported as over 25 µM.

Work on `COc1ccc(/C=N\NC(=O)CN2CCN(c3cc4c(cc3F)c(=O)c(C(=O)N/N=C/c3ccc(OC)c(OC)c3)cn4C3CC3)CC2)cc1OC` yielded a GI50 [1] of 3.07 µM and a TGI [1] of 8.35 µM.

`CC1=C2[C@@H](CC1)[C@]1(C)O[C@@](C3CCCCC3)(C[C@H]1OC(=O)CO)[C@H]2OC(=O)/C=C/c1ccccc1` gave a GI50 [1] of 9.64 µM and a TGI [1] of 24.4 µM.
